Data on six sequences can be found in patent publication US10758609B2, “Cross-reactive T-cell epitopes of HIV, SIV, and FIV for vaccines in humans and cats” (priority 2015, dated 2020).

In assay [1] the test system is CD3^+CD4^+ T cells from HIV^+ subjects. Kind of assay: CFSE-based CD3+CD4+ T-cell proliferation, HIV+ human subjects. The settings on record: for CD4, frequency of responders: FIV epitope peptide; for CDC4^+ T (T-cell proliferation), frequency of responders: FIV peptides. The protocol: The overlapping peptide pools of FIV and HIV-1 structural and enzyme proteins were used to stimulate the […] (PBMC) and the T cells from HIV^+ subjects as previously described for epitope mapping of HIV-1 and FIV p24 and reverse transcriptase (RT) (Sanou et al., 2013; Roff et al., 2015). The individual peptides in those peptide pools with positive responses to either interferon-γ (IFNγ) production and/or T-cell proliferation were determined with IFNγ ELISpot analysis and CFSE-based CD3^+CD4^+ and CD3^+CD8^+ T-cell proliferation analyses followed by the FACS-based intracellular staining (ICS) for cytolysin (perforin) and cytotoxin (granzyme A [GrzA] and GrzB) (Sanou et al., 2013; Roff et al., 2015). Besides viral p24 and RT proteins, the identical approach was used to identify anti-HIV/FIV T-cell epitopes on viral matrix (MA), nucleocapsid (NC), protease (PR), RNAase, integrase (IN), surface envelope (SU Env), and transmembrane envelope (TM Env) (FIG. 12).
Since our goal is to develop HIV vaccine for human use, the HIV peptides (Table 10) counterpart of the cross-reactive FIV peptides shown in Table 9 were tested with PBMC and T cells from HIV^+ subjects. The immune functions analyzed were human IFNγ production by ELISpot, cytolysin/cytotoxin production by ICS, and CFSE-based proliferation of CD3^+CD4^+ and CD3^+CD8^+ T cells from HIV^+ subjects (Table 10, the first set of results). In addition, the Los Alamos National Laboratories (LANL) database was used to identify the HLA allele(s) of the HIV epitope sequence with CTL activity that can exist within the sequence of the conserved counterpart HIV peptide (Table 9, LANL CTL). The bold HLA class-I supertypes and the bold 2-digit alleles are those on the “Optimal CD8^+ CTL Epitopes” list and those without bold are alleles for potential CTL epitope. […] The HLA class II such as HLA-DRB1 has yet to be fully classified into supertypes, and therefore the 4-digit resolution nomenclatures for the HLA-DRB1 alleles are shown.
The threshold for positive IFNγ and IL2 ELISpot responses is ≥50 spot-forming units (SFU) per 10^6 PBMC. The threshold for CFSE-based CD4^+ and CD8^+ T-cell proliferation is ≥2% CD4^+ T-cell CFSE^low or CD8^+ T-cell CFSE^low. The threshold of FACS-based intracellular cytokine staining (ICS) is ≥0.2%. […] The nine FIV peptides in black were used in the current MAP vaccine trial, whereas the 13 peptides in blue were not used. […] The MAPs and their corresponding peptide(s) were also tested for their ability to enhance or suppress in vitro FIV infection of feline PBMC (E/S of peptides and E/S of MAP).
The counterpart HIV-1 peptides of the FIV peptides were also tested for immunogenicity using PBMC and T cells from HIV^+ human subjects. […] The HRT7-1 and HRT7-2 were also tested with cells from HIV^+ subjects on ART. The threshold for positive IFNγ ELISpot response is ≥75 spot-forming units (SFU) per 10^6 PBMC. The threshold for CFSE-based CD4^+ (CD4^+ T) and CD8^+ (CD8^+ T) T-cell proliferation is ≥2% CD4^+ T-cell CFSE^low or CD8^+ T-cell CFSE^low. The threshold of intracellular cytokine staining (ICS) of FACS-based cytolysin (perforin) and cytotoxins (granzymes A and B) in CD4^+ T cells (CyCD4) and CD8^+ T cells (CyCD8) is ≥0.2%. […] The nine HIV-1 peptides in black are the counterpart FIV peptides used in the current MAP vaccine trial, whereas the 13 peptides in blue were not.

Assay [2] has as its system PBMC from FIV-vaccinated cats. Kind of assay: Feline IL2 ELISpot of PBMC from vaccinated cats. Format: cell-based, cat. The protocol: IFNγ and IL2 ELISpot analyses were performed using feline IFNγ ELISpot and feline IL2 ELISpot kits (R&D Systems, Cat# SEL764 and SEL1890) as described. The threshold is defined as ≥50 spot forming units (SFU) per 1×10^6 PBMC when counted with MVS ELISpot Reader (MVS Pacific, LLC). Each result is an average of the duplicate samples after subtraction of the average value of the media controls.
Concurrently, the overlapping peptide pools of FIV structural/enzyme proteins were used to stimulate PBMC and T cells from FIV-vaccinated cats. These cats were vaccinated with prototype dual-subtype FIV vaccine which was the prototype to our commercial FIV vaccine (Coleman et al., 2014). The feline assays (Example 1) equivalent to those of human assays (Sanou et al., 2013; Roff et al., 2015) were used except for ICS analysis. In place of ICS for cytolysin/cytotoxins, IL2 ELISpot analysis was performed. […] The results for FIV-vaccinated cats included IFNγ and IL2 productions and CD3^+CD4+ and CD3^+CD8^+ T-cell proliferation (Table 9, the second set of results).
The feline IFNγ and L2 ELISpot analyses of PBMC to FIV MAPs and peptides were performed as previously described (Abbott et al. (2012)) using feline IFNγ modular kit (R&D Systems, Minneapolis, Minn.) and feline IL2 modular kit (R&D Systems). All results shown in the figures (FIGS. 8A-1, 8B-1, 8A-2, 8B-2, 8A-3, 8B-3) are after subtracting the average value of the results from all control cats.
The second parameter evaluated was the ability of the peripheral blood mononuclear cells (PBMC) from vaccinated and control cats to produce IL2 and interferon-γ (IFNγ) proteins in responses to FIV MAPs and peptides (FIGS. 8A-1, 8A-2, 8A-3, 8B-1, 8B-2, 8B-3) using feline IL2 and IFNγ ELISpot assays (Aranyos et al. (2016); Abbott et al. (2012)). IL2 enhances the proliferation of FIV-specific CD4^+ T cells and CD8^+ T cells. IFNγ is known enhance the FIV-specific CTL activities in vaccinated cats (Abbas et al. (2015)).

For the sequence AGLRQSLEQYQVVKQ [FSU4], the “CD4, frequency of responders” value in assay [1] is recorded as “— (0%-1.4% (—))”. Also, in assay [1], the “CDC4^+ T (T-cell proliferation), frequency of responders” value (“CDC4^+ T (T-cell proliferation)” below) is reported as “— (0%-1.4%(—))”. For the same sequence, the “IL2, frequency of responders” value in assay [2] (FIV epitope peptide) is “— (0%-1.4% (—))”; in assay [2] (FIV peptides) it was “— (0%-1.4%(—))”.

Take KFLYTAFAMQELR [FTM4-3]: in assay [1], the “CD4, frequency of responders” value is listed as “— (0%-1.4% (—))” and the “CDC4^+ T (T-cell proliferation)” value is on record as “— (0%-1.4%(—))”. In addition, in assay [2] (FIV epitope peptide), the “IL2, frequency of responders” value is “++++ (>54% (++++))”. In addition, in assay [2] (FIV peptides), the “IL2, frequency of responders” value is reported as “++++ (>54% (++++))”.

For KKKSGKWRMLIDFRV [FRT3-3], in assay [1], the “CD4, frequency of responders” value is listed as “— (0%-1.4% (—))” and the “CDC4^+ T (T-cell proliferation)” value was “— (0%-1.4%(—))”. Besides, the “IL2, frequency of responders” value in assay [2] (FIV epitope peptide) is “++ (26%-40% (++))”. Further, the “IL2, frequency of responders” value in assay [2] (FIV peptides) is reported as “++ (25.1%-40% (++))”.

For LLLILCLPTLVDCIRN [FTM8(20)], in assay [1], the “CD4, frequency of responders” value is recorded as “++ (26%-40% (++))”. The “CDC4^+ T (T-cell proliferation)” value in assay [1] is “++ (25.1%-40% (++))”. Besides, the entries for the “IL2, frequency of responders” value in assay [2] (FIV epitope peptide) and in assay [2] (FIV peptides) were “— (0%-1.4% (—))” and “— (0%-1.4%(—))”, respectively.

For PTDMATLIMAAPGCA [Fp4-3], in assay [1], the “CD4, frequency of responders” value is “— (0%-1.4% (—))” and the “CDC4^+ T (T-cell proliferation)” value is reported as “— (0%-1.4%(—))”. Also, in assay [2] (FIV epitope peptide), the “IL2, frequency of responders” value was “+ (12.5%-25% (+))”. For the same sequence, in assay [2] (FIV peptides), the “IL2, frequency of responders” value is on record as “+ (12.5%-25% (+))”.

Regarding WRMLIDFRVLNKL [FRT3-4], in assay [1], the “CD4, frequency of responders” value is given as “— (0%-1.4% (—))” and the “CDC4^+ T (T-cell proliferation)” value is given as “— (0%-1.4%(—))”. Moreover, in assay [2] (FIV epitope peptide), the “IL2, frequency of responders” value is recorded as “++ (26%-40% (++))”. In addition, in assay [2] (FIV peptides), the “IL2, frequency of responders” value is “++ (25.1%-40% (++))”.
